In US20260258032A1, “TYROSINE KINASE 2 INHIBITORS AND USES THEREOF” (BIOGEN MA INC., priority 2022, published 2026):
pIC50: −log10 of the molar value. Structures can show the parent of a compound that is named as a salt.

Legend:
[1] = test system: Tyk2 kinase activity on STAT4; test: pSTAT4 cell assay (MSD, NK92 cells); type: cell-based; settings: compounds 1 hr, stimulated 15 minutes
In short: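 Cells natively expressing STAT4 and Tyk2 (NK92) are serum-starved to lower background phosphorylation, exposed to compound for 1 hr over a 10-point four-fold series starting at 10 μM, and stimulated with 30 ng/mL IL2 for 15 minutes. Phosphorylation is quantified on MSD with anti-STAT4 antibodies.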

JH2 domain of human Tyk2 = target: T1, JH2 domain of human Tyk2 (Homo sapiens, UniProt P29597); test: JH2 biochemical assay (TR-FRET probe displacement); type: binding; settings: JH2 biochemical assay
T1 construct: 10×His-tagged TYK2 JH2 domain (amino acid 575-876)
T1 sequence (P29597 575-876): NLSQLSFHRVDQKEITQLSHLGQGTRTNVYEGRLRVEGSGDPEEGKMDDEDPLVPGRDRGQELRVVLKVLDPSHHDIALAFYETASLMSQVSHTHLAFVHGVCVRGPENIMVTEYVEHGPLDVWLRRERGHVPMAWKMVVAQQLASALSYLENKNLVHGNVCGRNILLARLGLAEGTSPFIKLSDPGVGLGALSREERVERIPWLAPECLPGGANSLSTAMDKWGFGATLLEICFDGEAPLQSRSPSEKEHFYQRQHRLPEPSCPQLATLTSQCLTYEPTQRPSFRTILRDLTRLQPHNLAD
In short: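 A probe-displacement TR-FRET readout: compounds, tested in 3-fold, 10-point dilutions starting at […], compete with 2 nM tracer for 2 nM His-tagged JH2 (residues 575-876) detected by 0.1 nM Tb-anti-His over 60 min. IC50 comes from 4-parameter fits of normalized 520/495 nm ratios.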

SMILES: CC(=O)Nc1cc2c(cn1)C1(CC1)CN2c1cc([C@H]2C[C@H](C#N)C2)nc(C(C)(F)F)n1 [Example 75, N-(1′-(6-((1r,3r)-3-cyanocyclobutyl)-2-(1,1-difluoroethyl)pyrimidin-4-yl)-1′,2′-dihydrospiro[cyclopropane-1,3′-pyrrolo[3,2-c]pyridin]-6′-yl)acetamide or N-(1′-(6-((1s,3s)-3-cyanocyclobutyl)-2-(1,1-difluoroethyl)pyrimidin-4-yl)-1′,2′-dihydrospiro[cyclopropane-1,3′-pyrrolo[3,2-c]pyridin]-6′-yl)acetamide]
- pIC50 [1]: 6.00 to 7.00
- pIC50 (JH2 domain of human Tyk2): ≥ 8.00

SMILES: CC(=O)Nc1cc2c(cn1)C1(CC1)CN2c1nc(C(C)(F)F)cs1 [Example 79, N-(1′-(4-(1,1-difluoroethyl)thiazol-2-yl)-1′,2′-dihydrospiro[cyclopropane-1,3′-pyrrolo[3,2-c]pyridin]-6′-yl)acetamide trifluoroacetate]
- pIC50 [1]: ≤ 6.00
- pIC50 (JH2 domain of human Tyk2): 7.00 to 8.00

SMILES: CC(=O)Nc1cc2c(cn1)C1(CC1)CN2c1nc(C)c(C)s1 [Example 80, N-(1′-(4,5-dimethylthiazol-2-yl)-1′,2′-dihydrospiro[cyclopropane-1,3′-pyrrolo[3,2-c]pyridin]-6′-yl)acetamide]
- pIC50 [1]: ≤ 6.00
- pIC50 (JH2 domain of human Tyk2): 7.00 to 8.00

SMILES: CC(=O)Nc1cc2c(cn1)C1(CC1)CN2c1nc(C2CCCOC2)cs1 (stereo not drawn) [Example 81, N-(1′-(4-(tetrahydro-2H-pyran-3-yl)thiazol-2-yl)-1′,2′-dihydrospiro[cyclopropane-1,3′-pyrrolo[3,2-c]pyridin]-6′-yl)acetamide trifluoroacetate]
- pIC50 [1]: ≤ 6.00
- pIC50 (JH2 domain of human Tyk2): 7.00 to 8.00

SMILES: CC(=O)Nc1cc2c(cn1)C1(CC1)CN2c1nc(C2CCOC2)c(C)s1 (stereo not drawn) [Example 82, N-(1′-(5-methyl-4-(tetrahydrofuran-3-yl)thiazol-2-yl)-1′,2′-dihydrospiro[cyclopropane-1,3′-pyrrolo[3,2-c]pyridin]-6′-yl)acetamide trifluoroacetate]
- pIC50 [1]: 6.00 to 7.00
- pIC50 (JH2 domain of human Tyk2): ≥ 8.00

SMILES: COCCOc1cc(N2CC3(CC3)c3cnc(NC(C)=O)cc32)nc(C(C)(F)F)c1 [Example 86, N-(1′-(6-(1,1-difluoroethyl)-4-(2-methoxyethoxy)pyridin-2-yl)-1′,2′-dihydrospiro[cyclopropane-1,3′-pyrrolo[3,2-c]pyridin]-6′-yl)acetamide]
- pIC50 [1]: ≥ 8.00
- pIC50 (JH2 domain of human Tyk2): ≥ 8.00

SMILES: CCC(=O)Nc1cc2c(cn1)C1(CC1)CN2c1ccnc(C(C)(F)F)n1 [Example 89, N-(1′-(2-(1,1-difluoroethyl)pyrimidin-4-yl)-1′,2′-dihydrospiro[cyclopropane-1,3′-pyrrolo[3,2-c]pyridin]-6′-yl)propionamide]
- pIC50 [1]: 6.00 to 7.00
- pIC50 (JH2 domain of human Tyk2): ≥ 8.00

SMILES: COCCC(=O)Nc1cc2c(cn1)C1(CC1)CN2c1ccnc(C(C)(F)F)n1 [Example 91, N-(1′-(2-(1,1-difluoroethyl)pyrimidin-4-yl)-1′,2′-dihydrospiro[cyclopropane-1,3′-pyrrolo[3,2-c]pyridin]-6′-yl)-3-methoxypropanamide]
- pIC50 [1]: ≤ 6.00
- pIC50 (JH2 domain of human Tyk2): 7.00 to 8.00

SMILES: CC(=O)Nc1cc2c(cn1)C1(CC1)CN2c1cccc(S(C)(=O)=O)n1 [Example 93, N-(1′-(6-(methylsulfonyl)pyridin-2-yl)-1′,2′-dihydrospiro[cyclopropane-1,3′-pyrrolo[3,2-c]pyridin]-6′-yl)acetamide]
- pIC50 [1]: ≥ 8.00
- pIC50 (JH2 domain of human Tyk2): ≥ 8.00

SMILES: CC(=O)Nc1cc2c(cn1)C1(CC1)CN2c1ccccn1 [Example 94, N-(1′-(pyridin-2-yl)-1′,2′-dihydrospiro[cyclopropane-1,3′-pyrrolo[3,2-c]pyridin]-6′-yl)acetamide]
- pIC50 [1]: ≤ 6.00
- pIC50 (JH2 domain of human Tyk2): 6.00 to 7.00

SMILES: CC(=O)Nc1cc2c(cn1)C1(CC1)CN2c1cc(C)cc(C2(O)CCOC2)n1 (stereo not drawn) [Example 95, N-(1′-(6-(3-hydroxytetrahydrofuran-3-yl)-4-methylpyridin-2-yl)-1′,2′-dihydrospiro[cyclopropane-1,3′-pyrrolo[3,2-c]pyridin]-6′-yl)acetamide]
- pIC50 [1]: 6.00 to 7.00
- pIC50 (JH2 domain of human Tyk2): ≥ 8.00

SMILES: CC(=O)Nc1cc2c(cn1)C1(CC1)CN2c1cc(C)nc(C(C)S(C)(=O)=O)n1 (stereo not drawn) [Example 97, N-(1′-(6-methyl-2-(1-(methylsulfonyl)ethyl)pyrimidin-4-yl)-1′,2′-dihydrospiro[cyclopropane-1,3′-pyrrolo[3,2-c]pyridin]-6′-yl)acetamide]
- pIC50 [1]: 6.00 to 7.00
- pIC50 (JH2 domain of human Tyk2): ≥ 8.00

SMILES: CC(=O)Nc1cc2c(cn1)C1(CC1)CN2c1cc(C)nc(C2CCS(=O)(=O)C2)n1 (stereo not drawn) [Example 98, N-(1′-(2-(1,1-dioxidotetrahydrothiophen-3-yl)-6-methylpyrimidin-4-yl)-1′,2′-dihydrospiro[cyclopropane-1,3′-pyrrolo[3,2-c]pyridin]-6′-yl)acetamide]
- pIC50 [1]: ≤ 6.00
- pIC50 (JH2 domain of human Tyk2): 7.00 to 8.00

SMILES: COCCOc1ccnc(N2CC3(CC3)c3cnc(NC(C)=O)cc32)n1 [Example 99, N-(1′-(4-(2-methoxyethoxy)pyrimidin-2-yl)-1′,2′-dihydrospiro[cyclopropane-1,3′-pyrrolo[3,2-c]pyridin]-6′-yl)acetamide]
- pIC50 [1]: ≤ 6.00
- pIC50 (JH2 domain of human Tyk2): 7.00 to 8.00

SMILES: CC(=O)Nc1cc2c(cn1)C1(CC1)CN2c1cc(C)nc(-n2cccn2)n1 [Example 100, N-(1′-(6-methyl-2-(1H-pyrazol-1-yl)pyrimidin-4-yl)-1′,2′-dihydrospiro[cyclopropane-1,3′-pyrrolo[3,2-c]pyridin]-6′-yl)acetamide]
- pIC50 [1]: ≤ 6.00
- pIC50 (JH2 domain of human Tyk2): 7.00 to 8.00

SMILES: CC(=O)Nc1cc2c(cn1)C1(CC1)CN2c1cncc(C(C)(F)F)n1 [Example 101, N-(1′-(6-(1,1-difluoroethyl)pyrazin-2-yl)-1′,2′-dihydrospiro[cyclopropane-1,3′-pyrrolo[3,2-c]pyridin]-6′-yl)acetamide]
- pIC50 [1]: 6.00 to 7.00
- pIC50 (JH2 domain of human Tyk2): ≥ 8.00

SMILES: CC(=O)Nc1cc2c(cn1)C1(CC1)CN2c1cc(C)nc(C2CCOC2)n1 (stereo not drawn) [Example 103, N-(1′-(6-methyl-2-(tetrahydrofuran-3-yl)pyrimidin-4-yl)-1′,2′-dihydrospiro[cyclopropane-1,3′-pyrrolo[3,2-c]pyridin]-6′-yl)acetamide]
- pIC50 [1]: 6.00 to 7.00
- pIC50 (JH2 domain of human Tyk2): ≥ 8.00

SMILES: COC1(c2nc(C)cc(N3CC4(CC4)c4cnc(NC(C)=O)cc43)n2)CCC1 [Example 104, N-(1′-(2-(1-methoxycyclobutyl)-6-methylpyrimidin-4-yl)-1′,2′-dihydrospiro[cyclopropane-1,3′-pyrrolo[3,2-c]pyridin]-6′-yl)acetamide]
- pIC50 [1]: 6.00 to 7.00
- pIC50 (JH2 domain of human Tyk2): ≥ 8.00

SMILES: CC(=O)Nc1cc2c(cn1)C1(CC1)CN2c1cc(C)nc(N2CCCCC2)n1 [Example 113, N-(1′-(6-methyl-2-(piperidin-1-yl)pyrimidin-4-yl)-1′,2′-dihydrospiro[cyclopropane-1,3′-pyrrolo[3,2-c]pyridin]-6′-yl)acetamide]
- pIC50 [1]: ≤ 6.00
- pIC50 (JH2 domain of human Tyk2): 7.00 to 8.00

SMILES: CC(=O)Nc1cc2c(cn1)C1(CC1)CN2c1cc(C)nc(N2CCCC2)n1 [Example 114, N-(1′-(6-methyl-2-(pyrrolidin-1-yl)pyrimidin-4-yl)-1′,2′-dihydrospiro[cyclopropane-1,3′-pyrrolo[3,2-c]pyridin]-6′-yl)acetamide]
- pIC50 [1]: 6.00 to 7.00
- pIC50 (JH2 domain of human Tyk2): 7.00 to 8.00

SMILES: CC(=O)Nc1cc2c(cn1)C1(CC1)CN2c1cc(C)nc(N(C)C)n1 [Example 116, N-(1′-(2-(dimethylamino)-6-methylpyrimidin-4-yl)-1′,2′-dihydrospiro[cyclopropane-1,3′-pyrrolo[3,2-c]pyridin]-6′-yl)acetamide]
- pIC50 [1]: ≤ 6.00
- pIC50 (JH2 domain of human Tyk2): 7.00 to 8.00

SMILES: CC(=O)Nc1cc2c(cn1)C1(CC1)CN2c1cc(C)nc(C2CCCN(S(C)(=O)=O)C2)n1 (stereo not drawn) [Example 119, N-(1′-(6-methyl-2-(1-(methylsulfonyl)piperidin-3-yl)pyrimidin-4-yl)-1′,2′-dihydrospiro[cyclopropane-1,3′-pyrrolo[3,2-c]pyridin]-6′-yl)acetamide]
- pIC50 [1]: 6.00 to 7.00
- pIC50 (JH2 domain of human Tyk2): 7.00 to 8.00

SMILES: CC(=O)Nc1cc2c(cn1)C1(CC1)CN2c1cc(C)nc(C2CCN(C(C)=O)CC2)n1 [Example 120, N-(1′-(2-(1-acetylpiperidin-4-yl)-6-methylpyrimidin-4-yl)-1′,2′-dihydrospiro[cyclopropane-1,3′-pyrrolo[3,2-c]pyridin]-6′-yl)acetamide]
- pIC50 [1]: ≤ 6.00
- pIC50 (JH2 domain of human Tyk2): 6.00 to 7.00

SMILES: CC(=O)Nc1cc2c(cn1)C1(CC1)CN2c1cc(C)nc(C2CCN(S(C)(=O)=O)CC2)n1 [Example 122, N-(1′-(6-methyl-2-(1-(methylsulfonyl)piperidin-4-yl)pyrimidin-4-yl)-1′,2′-dihydrospiro[cyclopropane-1,3′-pyrrolo[3,2-c]pyridin]-6′-yl)acetamide]
- pIC50 [1]: ≤ 6.00
- pIC50 (JH2 domain of human Tyk2): 6.00 to 7.00

SMILES: CC(=O)Nc1cc2c(cn1)C1(CC1)CN2c1cc(C)nc(C2CC2C)n1 (stereo not drawn) [Example 123, N-(1′-(6-methyl-2-(2-methylcyclopropyl)pyrimidin-4-yl)-1′,2′-dihydrospiro[cyclopropane-1,3′-pyrrolo[3,2-c]pyridin]-6′-yl)acetamide]
- pIC50 [1]: 6.00 to 7.00
- pIC50 (JH2 domain of human Tyk2): ≥ 8.00

SMILES: CC(=O)Nc1cc2c(cn1)C1(CC1)CN2c1cc(C)nc(CO)n1 [Example 126, N-(1′-(2-(hydroxymethyl)-6-methylpyrimidin-4-yl)-1′,2′-dihydrospiro[cyclopropane-1,3′-pyrrolo[3,2-c]pyridin]-6′-yl)acetamide]
- pIC50 [1]: ≤ 6.00
- pIC50 (JH2 domain of human Tyk2): 7.00 to 8.00

SMILES: CC(=O)Nc1cc2c(cn1)C1(CC1)CN2c1nc(C(C)(F)F)nc(C)c1F [Example 127, N-(1′-(2-(1,1-difluoroethyl)-5-fluoro-6-methylpyrimidin-4-yl)-1′,2′-dihydrospiro[cyclopropane-1,3′-pyrrolo[3,2-c]pyridin]-6′-yl)acetamide]
- pIC50 [1]: 6.00 to 7.00
- pIC50 (JH2 domain of human Tyk2): ≥ 8.00
